Peptide text beside a SMILES is read from it.

One test deals with calmodulin (Bos taurus, UniProt P62157). Put plainly: kinetic analysis of N9 replacement peptides and multiple mutant by the methods of Examples 3 and 4. In kind it is binding. The settings on record: Table II, N9 replacement. As to the method:
Real-time interaction analysis by surface plasmon resonance on a BIAcore instrument (Jonsson et al., 1991) was used to determine kon and koff constants. […] Different concentrations of calmodulin (5, 10, 20, 50 and 100 nM in the order of FIG. 2) were injected and allowed to associate with the peptides. Regeneration of the surface was achieved by injection of 5 μl TBS+[…] which dissociates the calmodulin-peptide complex.
30 nM fluorescein-labelled peptide/calmodulin complexes in gel buffer were competed at room temperature for different times with 30-fold excess of unlabelled peptide. The resulting mixtures were run on native PAGE gels and imaged by LUANA as described above. The bands in the image obtained were integrated using the LUANA software (Neri et al., 1996) and the corresponding intersities plotted versus time and fitted with a single exponential, from which koff constants were derived. In order to normalise band intensities against pipetting errors, the samples contained 6 nM free fluorescein which ran with the front. The fluorescein bands were integrated and used to normalise the calmodulin/fluorescent peptide complex band intensity. […] Incubation time in minutes is indicated under the lanes.
Hydrophobic donor residues (valine, phenylalanine and leucine) were chosen because it was hypothesized that these residues would contribute to the stability of the hydrophobic environment in the calmodulin core.

The target in the next test is T1, barnase (Bacillus amyloliquefaciens, UniProt P00648).
T1 sequence (P00648 48-157): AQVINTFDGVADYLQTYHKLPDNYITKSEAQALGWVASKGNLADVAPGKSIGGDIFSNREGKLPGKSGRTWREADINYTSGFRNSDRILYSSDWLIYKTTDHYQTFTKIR
The following applies: cited from earlier work.

For the molecule `CC[C@H](C)[C@H](NC(=O)[C@H](Cc1ccccc1)NC(=O)[C@H](CC(C)C)NC(=O)[C@H](CCCCN)NC(=O)[C@H](CCCCN)NC(=O)[C@H](Cc1c[nH]c2ccccc12)NC(=O)[C@H](CCCNC(=N)N)NC(=O)[C@H](C)NC(=O)[C@H](C)NC(=O)[C@H](C)NC(=O)[C@@H](N)CS)C(=O)N[C@@H](C)C(=O)N[C@H](C(=O)N[C@@H](CO)C(=O)N[C@@H](C)C(=O)N[C@@H](C)C(=O)N[C@@H](CC(N)=O)C(=O)N[C@@H](CCCNC(=N)N)C(=O)N[C@@H](Cc1ccccc1)C(=O)N[C@@H](CCCCN)C(=O)N[C@@H](CCCCN)C(=O)N[C@H](C(=O)N[C@@H](CO)C(N)=O)[C@@H](C)CC)C(C)C` [c] (H-CAAARWKKLFIAVSAANRFKKIS-NH2; N-terminus and C-terminus assumed), on calmodulin, the off-rate constant (koff) was determined as 2.3e-05 s⁻¹ and the kon amounted to 1.1e+06 M⁻¹ s⁻¹.

B1: barstar: physiological inhibitor of barnase (protein, UniProt P11540 2-90, looked up)
Barstar: KKAVINGEQIRSISDLHQTLKKELALPEYYGENLDALWDCLTGWVEYPLVLEWRQFEQSKQLTENGAESVLQVFREAKAEGCDITIILS
B1: the association rate constant in the test with barnase was 3.8e+09 M⁻¹ s⁻¹.

By koff is commonly meant a measure of how fast the partners let go of each other. Higher therefore signals fast dissociation. One may read the kon as the second-order rate constant of association.

The values are drawn from patent publication US6316409A, “Modified ligands of calcium-dependent binding proteins” (Medical Research Council, priority 1996, dated 2001).
